Results taken from PMC10205683, “Structure Based Discovery of Inhibitors of CYP125 and CYP142 from Mycobacterium tuberculosis” (Chemistry (Weinheim an Der Bergstrasse, Germany), 2023).
≈ marks a conversion by molar mass, not a printed value. Read-outs that look alike come from different tables or passages of the source.

What was measured:
CYP125 = molecular target: T1, CYP125 (Mycobacterium tuberculosis, UniProt P9WPP1); assay: biochemical; type: binding; conditions: UV-Vis spectroscopy
T1 construct: encoding residues 18-433; twin-strep hexahistidine tag (TEV-cleavable) (N, cleaved yes); made in house; host or cells: E. coli C41(DE3), pET21a
T1 sequence (P9WPP1 18-433 limits assumed): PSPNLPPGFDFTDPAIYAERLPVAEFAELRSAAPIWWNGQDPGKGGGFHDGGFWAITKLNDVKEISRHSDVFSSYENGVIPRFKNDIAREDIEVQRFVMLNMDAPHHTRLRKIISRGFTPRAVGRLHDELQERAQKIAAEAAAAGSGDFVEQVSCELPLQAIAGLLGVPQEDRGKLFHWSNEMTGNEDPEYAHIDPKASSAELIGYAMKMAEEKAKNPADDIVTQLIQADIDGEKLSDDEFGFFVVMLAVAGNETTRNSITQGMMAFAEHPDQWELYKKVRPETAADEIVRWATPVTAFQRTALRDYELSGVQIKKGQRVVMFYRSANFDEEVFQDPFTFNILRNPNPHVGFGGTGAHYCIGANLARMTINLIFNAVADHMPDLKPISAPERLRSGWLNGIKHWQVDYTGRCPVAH

CYP142 [1] = molecular target: T2, CYP142 (Mycobacterium tuberculosis, UniProt P9WPL5); assay: biochemical; conditions: UV-Vis spectroscopy
T2 sequence (P9WPL5 2-398): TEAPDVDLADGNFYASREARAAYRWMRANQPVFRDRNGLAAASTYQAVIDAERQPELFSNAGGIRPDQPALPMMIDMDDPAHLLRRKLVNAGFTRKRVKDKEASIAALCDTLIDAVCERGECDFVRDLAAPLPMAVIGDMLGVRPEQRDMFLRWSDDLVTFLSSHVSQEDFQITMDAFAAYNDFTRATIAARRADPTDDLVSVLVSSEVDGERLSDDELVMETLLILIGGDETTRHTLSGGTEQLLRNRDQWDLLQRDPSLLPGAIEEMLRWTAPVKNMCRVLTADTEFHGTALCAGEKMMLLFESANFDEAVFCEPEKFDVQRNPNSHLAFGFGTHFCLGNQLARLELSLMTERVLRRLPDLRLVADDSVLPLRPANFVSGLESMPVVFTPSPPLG

Mtb strain K18b01MR = assay: microbe, parasite or virus in culture; type: cell-based; conditions: Mycobacterium tuberculosis
Mtb H37Rv (ATCC 27294) = assay: MIC determination against Mtb H37Rv; type: cell-based, Mycobacterium tuberculosis
Mtb strain K03b00DS = assay: MIC determination against Mtb K03b00DS (DS); type: cell-based; conditions: Mycobacterium tuberculosis
Mtb strain NIH_G269DR = assay: microbe, parasite or virus in culture; type: cell-based; conditions: Mycobacterium tuberculosis
Mtb strain CDC1551 = assay: MIC determination against Mtb CDC1551 (clinical strain); type: cell-based; conditions: Mycobacterium tuberculosis
Mtb strain 53 K113 = assay: microbe, parasite or virus in culture; type: cell-based; conditions: Mycobacterium tuberculosis
Mtb strain 028 K111 = assay: microbe, parasite or virus in culture; type: cell-based; conditions: Mycobacterium tuberculosis
Mtb strain KB019 = assay: microbe, parasite or virus in culture; type: cell-based; conditions: Mycobacterium tuberculosis
CYP142 [2] = molecular target: T2, CYP142; conditions: read-out: KD (CYP142); UV-Vis spectroscopy
[3] = Mycobacterium tuberculosis, 168 h
[4] = Mycobacterium tuberculosis, 336 h
[5] = Mycobacterium tuberculosis, 168 h, Table S1, H37Rv, […], 1 Week

| Compound | Kd (CYP125) | Kd (CYP142 [1]) | MIC (Mtb strain K18b01MR; 168 h) | MIC (Mtb strain K18b01MR; 336 h) | MIC (Mtb H37Rv (ATCC 27294); [4]) | MIC (Mtb strain K03b00DS; 168 h) | MIC (Mtb strain K03b00DS; 336 h) | MIC (Mtb strain NIH_G269DR; 168 h) | MIC (Mtb strain NIH_G269DR; 336 h) | MIC (Mtb strain CDC1551; 168 h) | MIC (Mtb strain CDC1551; 336 h) | MIC (Mtb strain 53 K113; 53K113, 168 h) | MIC (Mtb strain 53 K113; 53K113, 336 h) | MIC (Mtb strain 028 K111; 028K111, 168 h) | MIC (Mtb strain 028 K111; 028K111, 336 h) | MIC (Mtb strain KB019; KB019, 168 h) | MIC (Mtb strain KB019; KB019, 336 h) | MIC (Mtb H37Rv (ATCC 27294); [5]) | also measured |
| --- | --- | --- | --- | --- | --- | --- | --- | --- | --- | --- | --- | --- | --- | --- | --- | --- | --- | --- | --- |
| CCOC(=O)c1cc2cc(-c3ccncc3)ccc2n1CC1CCNCC1 [Compound 11] | 14800 ± 900 nM | 710 ± 90 nM | – | – | – | – | – | – | – | – | – | – | – | – | – | – | – | – | – |
| CCOC(=O)c1cc2cc(-c3ccncc3)ccc2n1CCN1CCOCC1 [Compound 12] | 2800 ± 100 nM | 1100 ± 100 nM | – | – | – | – | – | – | – | – | – | – | – | – | – | – | – | – | – |
| NC(=O)c1cc2cc(-c3ccncc3)ccc2n1CC1CCCCC1 [Compound 13] | 450 ± 40 nM | 30 ± 7 nM | – | – | – | – | – | – | – | – | – | – | – | – | – | – | – | – | – |
| c1cc(-c2ccc3c(ccn3CCN3CCNCC3)c2)ccn1 [Compound 14] | 271000 ± 13000 nM | 11100 ± 500 nM | – | – | – | – | – | – | – | – | – | – | – | – | – | – | – | – | – |
| NC(=O)c1cc2cc(-c3ccncc3)ccc2n1CCN1CCNCC1 [Compound 15] | 48800 ± 2300 nM | 2500 ± 200 nM | – | – | – | – | – | – | – | – | – | – | – | – | – | – | – | – | – |
| Cc1noc(-c2cc3cc(-c4ccncc4)ccc3n2CCC2CCNCC2)n1 [Compound 16] | > 100000 nM | 390 ± 50 nM | 6.25 µM (≈ 2.42 µg/mL) | 6.25 µM (≈ 2.42 µg/mL) | 12.5 µM (≈ 4.84 µg/mL) | 6.25 µM (≈ 2.42 µg/mL) | 6.25 µM (≈ 2.42 µg/mL) | 6.25 µM (≈ 2.42 µg/mL) | 9.4 µM (≈ 3.64 µg/mL) | 6.25 µM (≈ 2.42 µg/mL) | 6.25 µM (≈ 2.42 µg/mL) | 6.25 µM (≈ 2.42 µg/mL) | 6.25 µM (≈ 2.42 µg/mL) | 6.25 µM (≈ 2.42 µg/mL) | 6.25 µM (≈ 2.42 µg/mL) | 9.4 µM (≈ 3.64 µg/mL) | 12.5 µM (≈ 4.84 µg/mL) | – | MIC (Mtb H37Rv (ATCC 27294); [3]): 4.7 µM (≈ 1.82 µg/mL) |
| Cc1cnc(-c2cc3cc(-c4ccncc4)ccc3n2CCC2CCNCC2)o1 [Compound 17] | 5300 ± 200 nM | 790 ± 50 nM | 6.25 µM (≈ 2.42 µg/mL) | 6.25 µM (≈ 2.42 µg/mL) | 19 µM (≈ 7.34 µg/mL) | 4.7 µM (≈ 1.82 µg/mL) | 4.7 µM (≈ 1.82 µg/mL) | 6.25 µM (≈ 2.42 µg/mL) | 6.25 µM (≈ 2.42 µg/mL) | 6.25 µM (≈ 2.42 µg/mL) | 6.25 µM (≈ 2.42 µg/mL) | 6.25 µM (≈ 2.42 µg/mL) | 6.25 µM (≈ 2.42 µg/mL) | 6.25 µM (≈ 2.42 µg/mL) | 6.25 µM (≈ 2.42 µg/mL) | 12.5 µM (≈ 4.83 µg/mL) | 19 µM (≈ 7.34 µg/mL) | – | – |
| Cc1nnc(-c2cc3cc(-c4ccncc4)ccc3n2CCC2CCNCC2)o1 [Compound 18] | 10200 ± 100 nM | 990 ± 100 nM | 50 µM (≈ 19.4 µg/mL) | 50 µM (≈ 19.4 µg/mL) | > 50 µM | 50 µM (≈ 19.4 µg/mL) | 50 µM (≈ 19.4 µg/mL) | > 50 µM | > 50 µM | 50 µM (≈ 19.4 µg/mL) | 50 µM (≈ 19.4 µg/mL) | 50 µM (≈ 19.4 µg/mL) | > 50 µM | 50 µM (≈ 19.4 µg/mL) | > 50 µM | > 50 µM | 50 µM (≈ 19.4 µg/mL) | 25 µM (≈ 9.69 µg/mL) | MIC (Mtb H37Rv (ATCC 27294); Mycobacterium tuberculosis, 336 h, Table S1, H37Rv, […], 2 Week): 50 µM (≈ 19.4 µg/mL); MIC (Mtb H37Rv (ATCC 27294); Table S1, H37Rv, […], 1 Week): > 50 µM |
| CCCC(=O)c1cc2cc(-c3ccncc3)ccc2n1CCC1CCNCC1 [Compound 19] | 3600 ± 200 nM | – | 6.25 µM (≈ 2.35 µg/mL) | 6.25 µM (≈ 2.35 µg/mL) | 12.5 µM (≈ 4.69 µg/mL) | 4.7 µM (≈ 1.76 µg/mL) | 4.7 µM (≈ 1.76 µg/mL) | 6.25 µM (≈ 2.35 µg/mL) | 6.25 µM (≈ 2.35 µg/mL) | 6.25 µM (≈ 2.35 µg/mL) | 6.25 µM (≈ 2.35 µg/mL) | 6.25 µM (≈ 2.35 µg/mL) | 6.25 µM (≈ 2.35 µg/mL) | 6.25 µM (≈ 2.35 µg/mL) | 6.25 µM (≈ 2.35 µg/mL) | 12.5 µM (≈ 4.69 µg/mL) | 19 µM (≈ 7.13 µg/mL) | 9.4 µM (≈ 3.53 µg/mL) | MIC (Mtb H37Rv (ATCC 27294)): 9.4 µM (≈ 3.53 µg/mL); MIC (Mtb H37Rv (ATCC 27294); [3]): 6.25 µM (≈ 2.35 µg/mL); MIC (Mtb H37Rv (ATCC 27294); Table S1, H37Rv, […], 1 Week): 12.5 µM (≈ 4.69 µg/mL); Kd (CYP142 [2]): 230 ± 50 nM |
| NNC(=O)c1ccncc1 [Isoniazid, reference compound] | – | – | – | – | – | – | – | – | – | – | – | – | – | – | – | – | – | 0.15 µM (≈ 0.0206 µg/mL) | – |
